Tests used:
cancer cells = test: Combined TAF10 inhibition and oxaliplatin: confluence, PI staining, FACS cell death; assay type: cell-based
Method: (§1) Infected cells were inoculated in a 96-well plate (6×10^3 cell/well) to measure the cell growth and the cell growth was recorded every 3 hours using IncuCyte ZOOM (Essen Bioscience), and cell confluence was analyzed using IncuCyte ZOOM 2016A software.
Meanwhile, an increase in the cancer stemness of cancer cells may also cause increased resistance of cancer cells to anticancer agents. Therefore, a colorectal cancer animal model in which TAF10 was inhibited or not was treated with the anticancer agent, oxaliplatin (1 μM concentration) and its therapeutic effect was confirmed.
In addition, as a result of staining cells by treating a PI solution capable of confirming cell death, it was confirmed that proliferation was suppressed when TAF10 was inhibited, and that the number of dying cells increased when treated with oxaliplatin along with TAF10 inhibition (FIG. 9B).
In addition, the degree of cell death through PI and 7-AAD was confirmed through FACS. In this regard, Q1 means NECROSIS, Q2 means LATE APOPTOSIS, Q3 means EARLY APOPTOSIS, and Q4 means live cells. The degree of cell death may be determined by increasing the ratio of Q2. As a result, it was confirmed that the ratio of Q2 increased when TAF10 was inhibited and oxaliplatin was combined, so that it was confirmed that cell death increased (FIG. 9C).

HCT116 [1] = test: Combined TAF10 inhibition and oxaliplatin in colorectal cancer-inducing animal model; assay type: in vivo, Nude mice
Method: First, TAF10 WT (wild type) and TAF10 knockdown (KD) cells were prepared in the same manner as in Experimental Example 1-3 using shRNA consisting of a base sequence represented by SEQ ID NO: 7 in HCT116, which was a colorectal cancer cell line. 2×10^6 of TAF10 WT or TAF10 KD was prepared and subcutaneously injected into Nude mice deficient of an immune system. Tumor occurrence was confirmed every two days, and its size was measured. In addition, in order to confirm the effect of combined treatment with anticancer agents, the colorectal cancer-inducing animal model prepared in the same manner as before was divided into four experimental groups, and after 2 weeks (14 days) when the tumor had formed to some extent, a control group was administered with PBS and in the experimental group, oxaliplatin was injected into the abdominal cavity at a concentration of 10 mg/kg every two days.
In addition, the combined effect in vivo was confirmed using a colorectal cancer-inducing animal model prepared by subcutaneously injecting HCT116 in which TAF10 was inhibited or HCT116 in which TAF10 was not inhibited. From two weeks after the tumor in each experimental group was formed, WT and KD were divided into two experimental groups. […]

HCT116 [2] = test: Cell cycle by FACS (PI staining); assay type: cell-based; details: HCT116, FIG. 5B
Method: The cells were treated with trypsin-EDTA, separated into single cells, washed twice with PBS, and fixed with 70% ethanol for 1 hour at −20° C. After washing again with PBS twice, the cells were treated with 20 μg/ml of RNase A, and flow cytometry analysis was performed through 20 μg/ml of propidium iodide (PI) staining.
(§2) Through Example, it was confirmed that the TAF10 inhibition suppressed the growth of HCT116, a colorectal cancer cell line. As a result, the expression genes and proteins related with the growth rate and cell growth and the expression of genes and proteins related to cell cycle arrest were confirmed according to TAF10 inhibition (using siRNA) in HT29 and CACO2 colorectal cancer cell lines, which were other colorectal cancer cell lines. In addition, the cell cycle was confirmed according to TAF10 inhibition, and whether there was an increase in senescent cells was confirmed. The senescent cells were confirmed by staining the senescent cells using a senescence b-galactosidase staining kit (Cell signaling).

HCT116 [3] = test: Western blot protein expression upon TAF10 inhibition; assay type: cell-based
Method: Cellular proteins were dissolved and extracted on ice in a lysis buffer (20 mM HEPES (pH 7.2), 150 mM NaCl, 0.5% Triton X-100, 10% glycerol, 0.1% SDS) containing 0.1% protease inhibitor and phosphatase inhibitor cocktail (Thermo-scientific, USA). The proteins were separated through protein electrophoresis (10% gel) and transferred to a PVDF membrane. For Western blot, an anti-TAF10 (ab263967) antibody was purchased from Abcam, anti-AKT1 (2938S), anti-phosphoAkt (2965S), anti-phospho B-raf (#2696), anti-MEK1/2. (#9122), anti-phosphoERK1/2 (#9106), anti-STAT3 (#9139), and anti-phosphoSTAT3 (#9131) antibodies were purchased from Cell signaling, and anti-phospho m-TOR (sc-293133), anti-phosphoMEK1/2 (sc-81503), anti-CyclinE1 (sc-247), anti-CDK2 (sc-6248), and anti-VEGF (sc7269) antibodies were purchased and used from Santacruz. A rabbit polyclonal anti-GAPDH antibody was provided and used from the Korea Research Institute of Bioscience and Biotechnology. The expression of each protein band was confirmed using an enhanced chemiluminescence (ECL) solution.
Through Example, it was confirmed that the TAF10 inhibition suppressed the growth of HCT116, a colorectal cancer cell line. […]

HT29 = test: Growth rate of colorectal cancer cell line upon TAF10 inhibition (siRNA); assay type: cell-based; details: FIG. 4A
Method: (§3) Transfection reagents RNAiMAX (Thermo Fisher Scientific) and siRNA (BIONEER Corporation, Daejeon, South Korea) were mixed in an Opti-mem medium at a final concentration of 30 nM. Target cells were cultured with the mixture, and then cells were harvested for RNA extraction after 72 hours of siRNA transfection.
as §1, §2

CACO2 = test: as above; assay type: cell-based; details: FIG. 4A
Method: as §3, §1, §2

HCT116 [4] = test: qRT-PCR gene expression upon TAF10 inhibition; assay type: cell-based
HCT116 [5] = test: Senescence b-galactosidase staining; assay type: cell-based; details: HCT116, FIG. 5C
HCT116 [6] = test: Cell growth (IncuCyte confluence) after siRNA transfection; assay type: cell-based; details: HCT116, siRNA 30 nM, FIG. 2A
Method: as §3
The used siRNAs siNPM1, siTAF10, and siZNHIT1 were as follows. • (SEQ ID NO: 1) siTAF10-SENSE: GUGAAGAAGCCGCACUACU • (SEQ ID NO: 2) siTAF10-ANTISENSE: AGUAGUGCGGCUUCUUCAC • (SEQ ID NO: 3) siNPM1-SENSE: […] GA • (SEQ ID NO: 4) siNPM1-ANTISENSE: […] UC • (SEQ ID NO: 5) siZNHIT1-SENSE: GAGACUGCCUCAGUUUGAU • (SEQ ID NO: 6) siZNHIT1-ANTISENSE: AUCAAACUGAGGCAGUCUC 1-3. Transfection and Transduction of shRNA
as §1
Based on those confirmed in Example 1, NPM1, TAF, or ZNHIT1 of the colorectal cancer cell line HCT116 was inhibited as in Experimental Example 1-2, and its growth ability was confirmed. […] In addition, as a result of confirming overall survival probability when TAF10 is inhibited in The Cancer Genome Atlas (TCGA) as a large-scale cancer database, it was confirmed that the survival probability was increased (see FIG. 2B). […]

Row | Compound | effect of TAF10 inhibition on the anticancer effect of oxaliplatin (cancer cells; FIG. 9) | cancer confluence (cancer cells; TAF10 inhibited and oxaliplatin 1 μM, FIG. 9A) | ratio of Q2 (LATE APOPTOSIS), FACS PI and 7-AAD (cancer cells; TAF10 inhibited and oxaliplatin combined, FIG. 9C) | number of dying cells (PI staining) (cancer cells; oxaliplatin along with TAF10 inhibition, FIG. 9B) | tumor size (HCT116 [1]; TAF10 KD HCT116, oxaliplatin 10 mg/kg once every two days, after 44 days, FIG. 9E) | tumor size (tumor volume over time) (HCT116 [1]; TAF10 inhibited and oxaliplatin, FIGS. 9D and 9E) | cell cycle (HCT116 [2]) | expression of proteins Cyclin E1 and CDK2 related to cell cycle arrest (HCT116 [3]; FIG. 5A) | expression of proteins tAkt1, pAkt, pGSK-3β, m-TOR, pB-raf, tMEK1/2, pMEK1/2, and pERK1/2 (HCT116 [3]; HCT116, FIG. 4B) | growth rate (HT29) | growth rate (CACO2) | expression of genes TP53, CDKN1A, and CXCL8 related to cell cycle arrest (HCT116 [4]; FIG. 5A) | expression of genes MKI167, PCNA, and MCM7 related to cell growth (HCT116 [4]; HCT116, FIG. 4B) | number of senescent cells (HCT116 [5]) | cell proliferation (HCT116 [6])
1 | O=C1[O][Pt]2([NH][C@@H]3CCCC[C@H]3[NH]2)[O]C1=O [oxaliplatin] | synergistic effect | significantly reduced | increased | increased | significantly reduced | significantly reduced |  |  |  |  |  |  |  |  | 
2 | siTAF10: siRNA targeting TAF10; sense GUGAAGAAGCCGCACUACU (SEQ ID NO: 1), antisense AGUAGUGCGGCUUCUUCAC (SEQ ID NO: 2) (listed as RNA, chemistry not given here) |  |  |  |  |  |  | arrested | increased | reduced | reduced | reduced | increased | reduced | increased | significantly reduced
